One data set deals with HBV. The data set can be described thus: HBV antigen assay: LHBs and MHBs secreted by HepG2.2.15 cells, immunoblot. It is filed as cell-based, Hepatitis B virus. The following applies: 7 days. As to the method: MHBs and LHBs are HBV envelope proteins that are sensitive to glucosidase inhibition and inhibition of these important viral glycoproteins serves as a surrogate for HBV growth. […] To assess the activity of this compound in the context of viral replication, HepG2 2.2.15 cells were incubated with the indicated DNJ derived compound. HepG 2.2.15 cells secrete readily detectable amounts of MHBs and LHBs into the culture medium. After 7 days of incubation, the amount of HBV M and L in the culture medium was determined by western blot. […] The nature of the selective antiviral activity is not known, but may be due to cell specific activity since HBV is studied in human liver derived hepatoblastoma HepG2 cells and BVDV and WNV were studied in MDBK and BHK cells, respectively.
HBV antigen assay: Antiviral activity against HBV was determined using HepG2.2.15 cells, which contain a dimer of the HBV genome and express all viral gene products, including envelope glycoproteins (Sells, Chen, and Acs, 1987). Briefly, HepG2.2.15 cells were seeded in 24 well trays, and allowed to grow to confluence prior to addition of drug, as described previously (Simsek et al., 2005). After seven days of treatment, supernatants were harvested and assayed for the presence of the Large Hepatitis B (LHBs) and middle Hepatitis B (MHBs) glycoproteins by electrophoresis through 12% polyacrylamide gels and immunoblotting with a polyclonal antibody that recognizes the pre-S2 region of the LHBs and MHBs proteins (Research Diagnostics Inc., Flanders, N.J.) as described (Simsek et al., 2005). Quantitation was performed using AlphaEase software (Alphalnnotech).
(In western blotting, separated proteins are transferred to a membrane and probed.)

A further data set relates to BHK cells. The data set can be described thus: MTT compound toxicity assay on BHK cells. In kind it is cell-based. Particulars: for CC50: WNV (BHK), MTT, 50% reduction relative to DMSO. How it is done: (§1) Compound toxicity assay. Compound cytotoxicity was assessed by using an MTT based toxicity assay kit (Sigma, St. Louis, Mo.) as described elsewhere (Gu et al., 2006). Briefly, cells cultured under conditions identical to those used in the viral assay were incubated with various concentrations of the compound for 72 hours. MTT was added to the media to a final concentration of 0.5 mg/ml and was incubated for 3 hours at 37 C. After the culture media was removed, formazan crystals was dissolved by adding 150 ul of solubilization solution (10% Triton X-100, 0.1 N HCl in anhydrous isopropanol) for 15-30 minutes. The absorbance of the dissolved formazan was measured spectrophotometrically at 570 nm with absorbance at 690 nm as background.

The test system of a further data set is BVDV. As to the kind of experiment: BVDV single cycle virus yield reduction assay in MDBK cells. In kind it is cell-based, Bovine Viral Diarrhea virus (NADL strain). Particulars: for SI (Selective Index, CC50/IC50) / IC50: BVDV (MDBK); for IC50: concentration reducing plaque number by 50% relative to DMSO, read-out: IC50; for antiviral activity against BVDV (in words): MDBK cells, virus yield reduction, FIG. 2C / 4C. As to the method:
BVDV antiviral and plaque assays. To evaluate antiviral activity against BVDV, a single cycle virus yield reduction assay was performed in the presence of various concentrations of the test compounds. Specifically, 2×10^5 MDBK cells/well were plated in 24 well plates. Twenty-four hours later, the cells were infected with BVDV at a multiplicity of infection (moi) of 0.5 PFU/cell in 100 ul complete media. After adsorption for 1 h at 37° C., the inoculum was removed, and cells were washed with media before media containing vehicle or various concentrations of each compound was added. At 22 hour post infection, both cell and media were collected and freeze-thawed three times before the virus was titered. For BVDV virus titer determination, 10^−2, 10^−3, and 10^−4 dilutions of virus were inoculated onto MDBK cells as described previously (Gu et al., 2000; Jordan et al., 2002). After absorption and washing the cells were overlaid with medium containing methylcellulose or soft agar and incubated at 37° C. for 3 days or until plaques were visible. Plaques were counted directly under the microscope or after staining with crystal violet in 70% methanol for 15 min.
(§2) The anti-viral activity of this family of compounds against BVDV was then determined by a single cycle viral yield reduction assay in Madin Darby Bovine Kidney (MDBK) cells where the compounds are incubated with cells for 20 hours during the period of infection. Yields of virus were then determined by plaque assay on new MDBK cell monolayers. Compound toxicity was measured by MTT assay and the CC50 determined as the concentration of compound producing 50% reduction in absorption readings. […] This is consistent with previous findings in which oxygenation and methoxylation of side chains emanating from the ring nitrogen were less toxic in tissue culture and in animals than straight chain alkylated DNJs (Mehta et al., 2002b).

The subject of the next data set is DV serotype 2. The data set can be described thus: DV yield reduction assay in BHK cells. It is filed as cell-based, Dengue virus (DV) serotype 2. As to the method: In the DV infection assay, a serotype 2 DV was used to infect BHK cells in the presence or absence of testing compounds and viruses produced after 72 hours were titered in a manner similar to the WNV assay. In this experiment, N-butylcyclohexyl-DNJ (SP169), N-pentyl(1-hydroxylcyclohexyl)-DNJ (OSL-95II), […] and N-propylcyclohexyl-DNJ (SP173) were compared with NNDNJ (Wu et al., 2002) and castanospermine. […] All compounds had no toxicity at the highest concentrations used in this experiment (FIG. 5B, Table 1).

The next data set deals with MDBK cells. The data set can be described thus: MTT compound toxicity assay on MDBK cells. In kind it is cell-based, Bovine. Particulars: 72 hours; for CC50: BVDV (MDBK), concentration reducing MTT values (570 nm) by 50% relative to DMSO. How it is done: as §1, §2
A general note: Formazan colour is commonly taken as a measure of viable cells.

The next data set relates to WNV. The data set can be described thus: WNV yield reduction assay in BHK cells. How it is done:
Cells and viruses. BVDV-free MDBK cells (CCL 22) were obtained from the American Type Culture Collection and propagated in DMEM/F12 essential medium supplemented with penicillin (500 U/ml), streptomycin (500 U/ml), and 10% heat inactivated horse serum (Invitrogen). Cells were maintained in a humidified incubator at 37° C. with 5% CO2. BVDV (NADL strain) was obtained from Dr. Rubin Donis (Univ. of Nebraska-Lincoln). For infections, virus inoculum was added in complete medium and adsorbed for 1 h at 37° C., the inoculum was then removed, the cells washed once with medium and fresh medium containing compounds added. Virus stocks were prepared by freeze-thawing the infected cells and culture supernatant three times followed by centrifugation at 1,000 g for 5 min. Stock titers were determined, and stocks were aliquoted and stored at −80° C. WNV was obtained from a cDNA clone of a human 2002 isolate from Texas (Rossi et al., 2005); virus obtained from BHK cells electroporated with the in vitro synthesized RNA from this cDNA clone was passaged in Vero cells before use in antiviral assays. Dengue virus (DV) serotype 2 was a New Guinea C virus that had been passaged 28 times in suckling mouse brain, twice in Vero cells, and once in C6/36 mosquito cells.
WNV and DV Yield Reduction assay: Antiviral activity against WNV was evaluated in a yield reduction assay. Briefly, BHK cells were plated in 96-well plates at a concentration of 2.5×10^4 cells/well. 24 hours after plating, the cells were infected with WNV at an MOI of 0.05. After 1 hour the inoculum was aspirated and the cells re-fed with fresh DMEM containing dilutions of the test compounds. Plates were then incubated at 37° C. for 48 hours, the supernatant collected and the WNV produced titered. For virus titration, Vero cells were plated in 96-well plates at 8.0×10^3 cells/well and incubated overnight. The Vero cell monolayers were then infected for 1 hour with various dilutions of the WNV supernatant, overlaid with media containing 0.6% tragacanth (ICN, CA) and incubated at 37° C. for 24-30 hours. The culture media was then aspirated; the plate was rinsed, air-dried, and fixed with 50 ul/well acetone/methanol (50:50). Viral foci were detected for enumeration by immunostaining as described previously (Rossi et al., 2005). For antiviral testing against DV, DV serotype 2, drug incubations and titrations were performed essentially as described for WNV, except that the virus was harvested from drug-treated cultures 72 hrs after infection, and foci were stained using hybridoma culture fluid harvested from monoclonal antibody-producing hybridoma clone D1-4G2 (Gentry et al., 1982) following 3 days of incubation on Vero cells under the tragacanth overlay.
For this purpose, BHK cells were infected with WNV at an moi of 0.05, and incubated in either the absence or presence of various concentrations of N-butylcyclohexyl-DNJ (SP169) and N-propylcyclohexyl-DNJ (SP173). After three days, the amount of progeny virus produced was determined by plaque assays on indicator Vero cells.

Data set [1] in a line: MTT compound toxicity assay on MDBK cells. It is filed as cell-based, Bovine. The following applies: bovine, MDBK cells, MTT, text to FIG. 2B / 4B. As to the method: as §1, §2
Data set [2] is described as follows: MTT compound toxicity assay on BHK cells. In kind it is cell-based. The following applies: hamster; WNV (BHK); MTT, 50% reduction relative to DMSO. How it is done:
as §1

The mark [3] stands for this setting: WNV (BHK), plaque number reduced by 50% relative to DMSO, 48 hours.

This is an account of results in patent US8097728B2, “Iminosugar compounds with antiflavirus activity” (Philadelphia Health & Education Corporation, priority 2007, dated 2012).

Read-outs that look alike come from different tables or passages of the source.

For the molecule `Nc1ccn([C@@H]2CS[C@H](CO)O2)c(=O)n1` [Compound 3TC, reference compound], the “reduction of MHBs and LHBs in culture medium (in words)” value with HBV (3TC 1 ug/ml, FIG. 6B) was “little effect”.
Broadly, the CC50 is the concentration at which the toxic effect on the cells reaches its halfway point. High values mean lower toxicity to the cells, low ones greater toxicity to the cells. As for `CCCCCCCCCN1C[C@H](O)[C@@H](O)[C@H](O)[C@H]1CO` [NNDNJ, N-nonyl-DNJ, reference compound], the CC50 in the data set with BHK cells is 20 to 100 µM; in the data set with MDBK cells, 150 µM. Moreover, the “SI (Selective Index, CC50/IC50)” value was above 50 with BVDV, 20-100 with DV serotype 2 (DV (BHK)) and 5-25 in the data set on WNV (WNV (BHK)). Further, the IC50 in the data set with BVDV is below 3 µM; in the data set on DV serotype 2 (text to FIG. 5A, BHK cells, DV serotype 2, 72 hours, read-out: IC50 against DV) it was 1 µM; in the data set with WNV (setting [3]), 4 µM.
Turning to `OC[C@@H]1[C@@H](O)[C@H](O)[C@@H](O)CN1CCCCC1(O)CCCCC1` [OSL-12-31, N-butyl(1-hydroxycyclohexyl)-1,5-dideoxy-1,5-imino-D-glucitol], the “toxicity in MDBK cells (in words)” value in the data set with MDBK cells (MTT, FIG. 4B) is “less toxic in MDBK cultures than SP169”. In data set [1], this molecule displayed a CC50 at 72 h above 300 µM.
Take `CCOCCCCCN1C[C@H](O)[C@@H](O)[C@H](O)[C@H]1CO` [Compound 6-08, 6′-oxaoctyl-DNJ]: the “antiviral activity against BVDV (in words)” value in the data set with BVDV is “retained the best antiviral activity of the series”.
Regarding `OC[C@@H]1[C@@H](O)[C@H](O)[C@@H](O)CN1CCCC1CCCCC1` [SP173, N-propylcyclohexyl-DNJ], in the data set with BHK cells (BHK cells, measured in parallel to WNV assay, data not shown), the “concentration without any detectable cell toxicity (highest concentration tested)” value was found to be 100 µM. In addition, the CC50 with BHK cells is above 100 µM; in the data set with MDBK cells, above 150 µM. Besides, the “SI (Selective Index, CC50/IC50)” value with BVDV is above 30; with DV serotype 2 (DV (BHK)), above 33; with WNV (WNV (BHK)) it was above 100. Moreover, the IC50 in the data set on BVDV was 5 µM; with DV serotype 2 (DV (BHK), serotype 2, 72 hrs, read-out: IC50), 3 µM; with WNV (setting [3]), 1 µM; with WNV (read-out: concentration inhibiting 50% of the WNV progeny produced, text to FIG. 3B, BHK cells, moi 0.05), 5 µM. Moreover, the “antiviral activity against WNV (in words)” value in the data set on WNV (BHK cells, moi 0.05, FIG. 3B / 4D) is on record as “comparable to NNDNJ in activity”.
In the case of `OC[C@@H]1[C@@H](O)[C@H](O)[C@@H](O)CN1CCCCCC1CCCCC1` [OSL-1, N-pentylcyclohexyl-DNJ], in the data set on HBV (50 uM, FIG. 6A), the “inhibition of secretion of viral glycoproteins MHBs and LHBs (in words)” value is given as “lacked antiviral activity in this assay”.
`OC[C@@H]1[C@@H](O)[C@H](O)[C@@H](O)CN1CCCCCCC1CCCCC1` [OSL-2, N-hexylcyclohexyl-DNJ]: the “antiviral activity against BVDV (in words)” value in the data set on BVDV is “appeared to be inactive against BVDV”.
In data set [1], `OC[C@@H]1[C@@H](O)[C@H](O)[C@@H](O)CN1CCCCCCC1(O)CCCCC1` [OSL-3, N-hexyl(1-hydroxycyclohexyl)-1,5-dideoxy-1,5-imino-D-glucitol] registered a CC50 at 72 h above 300 µM.
For `OC[C@@H]1[C@@H](O)[C@H](O)[C@@H](O)CN1CCCCC1=CCCCC1` [OSL-12-51, N-butyl(1-cyclohexenyl)-DNJ], the “antiviral activity against BVDV (in words)” value in the data set on BVDV is on record as “substantially less active against BVDV”.
In turn, `O[C@H]1[C@H](O)[C@@H](O)CN2CC[C@H](O)[C@H]12` [CAST, Castanospermine, reference compound] showed a CC50 at 72 h in data set [2] above 100 µM. The IC50 in the data set with DV serotype 2 (Dengue virus, BHK, 72 h) is 6 µM; in the data set with DV serotype 2 (Dengue virus, BHK, 72 h, read-out: IC50 against DV), 6 µM; in the data set with WNV (West Nile virus, BHK, 48 h), above 20 µM. Also, the selectivity ratio at 72 h in the data set on DV serotype 2 (hamster, DV (BHK), read-out: SI (Selective Index, CC50/IC50)) was above 17. Also, the selectivity ratio at 48 h in the data set with WNV (hamster) worked out at 5. For the same molecule, the “antiviral activity against WNV (in words)” value in the data set on WNV (highest concentration tested (20 uM)) was “no significant activity”.
